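Where inhibition never reached the appropriate level, the endpoint shown equals the highest concentration tested. Otherwise, values were interpolated linearly from a five-concentration, 48-hour dose response in 96-well plates. GI50 marks 50% less growth.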 Activity calls are given as the source filed them. Rule as the data show it: active = GI50 up to about 1.1 µM and inactive = higher.
Assays:
Assay in all cases: NCI tumour cell line growth inhibition, 48 h
SW-620 = tested on: SW-620
NCI-H226 = tested on: NCI-H226
CCRF-CEM = tested on: CCRF-CEM
M14 = tested on: M14
OVCAR-8 = tested on: OVCAR-8
NCI-H460 = tested on: NCI-H460
RPMI-8226 = tested on: RPMI-8226
SK-MEL-28 = tested on: SK-MEL-28
SK-OV-3 = tested on: SK-OV-3
SNB-19 = tested on: SNB-19
SF-539 = tested on: SF-539
Malme-3M = tested on: Malme-3M
UACC-62 = tested on: UACC-62
RXF 393 = tested on: RXF 393
K562 = tested on: K562
KM12 = tested on: KM12
UO-31 = tested on: UO-31
CAKI-1 = tested on: CAKI-1

Measured: GI50

O=C1CN(C(=O)c2ccccc2)Cc2[nH]c3ccccc3c21
inactive: SW-620 > 100 µM | NCI-H226 > 100 µM | CCRF-CEM > 100 µM | M14 > 100 µM | OVCAR-8 > 100 µM | NCI-H460 > 100 µM | RPMI-8226 > 100 µM | SK-MEL-28 > 100 µM | SK-OV-3 > 100 µM | SNB-19 > 100 µM | SF-539 > 100 µM | Malme-3M > 100 µM | UACC-62 > 100 µM | RXF 393 > 100 µM | K562 > 100 µM | KM12 > 100 µM | UO-31 > 100 µM

Cc1cc2c(=O)cc(-c3ccc(Cl)c(Cl)c3)oc2c(C(=O)O)c1C
inactive: SW-620 > 100 µM | NCI-H226 > 100 µM | CCRF-CEM > 100 µM | M14 > 100 µM | OVCAR-8 > 100 µM | NCI-H460 > 100 µM | RPMI-8226 > 100 µM | SK-MEL-28 > 100 µM | SK-OV-3 > 100 µM | SNB-19 > 100 µM | CAKI-1 > 100 µM | SF-539 > 100 µM | Malme-3M > 100 µM | UACC-62 > 100 µM | RXF 393 76.6 µM | K562 > 100 µM | KM12 > 100 µM | UO-31 > 100 µM

CCC1=CCC(P(=O)(c2ccccc2)c2ccccc2)CC1C (centres undefined)
inactive: SW-620 48.5 µM | NCI-H226 39.2 µM | CCRF-CEM 31.3 µM | M14 32.6 µM | OVCAR-8 39.1 µM | NCI-H460 39.1 µM | RPMI-8226 22.9 µM | SK-MEL-28 37.8 µM | SK-OV-3 62.8 µM | SNB-19 27.5 µM | CAKI-1 > 100 µM | SF-539 42.9 µM | Malme-3M 41.7 µM | UACC-62 33.3 µM | RXF 393 42.2 µM | K562 35.2 µM | KM12 35.1 µM | UO-31 21.7 µM

CN1C(=O)C(C)(C)NS1(=O)=O
inactive: SW-620 > 100 µM | CCRF-CEM > 100 µM | M14 > 100 µM | OVCAR-8 > 100 µM | NCI-H460 > 100 µM | RPMI-8226 > 100 µM | SK-MEL-28 > 100 µM | SK-OV-3 > 100 µM | SNB-19 > 100 µM | CAKI-1 > 100 µM | SF-539 > 100 µM | Malme-3M > 100 µM | UACC-62 > 100 µM | RXF 393 > 100 µM | K562 > 100 µM | KM12 > 100 µM | UO-31 > 100 µM

O=C(CC1(O)C(=O)Nc2ccccc21)c1cccc(O)c1 (centres undefined)
inactive: SW-620 > 100 µM | NCI-H226 > 100 µM | M14 > 100 µM | OVCAR-8 > 100 µM | NCI-H460 > 100 µM | RPMI-8226 > 100 µM | SK-MEL-28 > 100 µM | SK-OV-3 > 100 µM | SNB-19 > 100 µM | CAKI-1 > 100 µM | SF-539 > 100 µM | Malme-3M > 100 µM | UACC-62 > 100 µM | RXF 393 > 100 µM | K562 > 100 µM | UO-31 46.1 µM

C[C@]12CCC(=O)C(O)=C1CC[C@@H]1C2CC[C@]2(C)NC(=O)CCC12 (some centres undefined)
inactive: SW-620 > 100 µM | NCI-H226 > 100 µM | CCRF-CEM > 100 µM | M14 > 100 µM | OVCAR-8 > 100 µM | NCI-H460 > 100 µM | RPMI-8226 > 100 µM | SK-MEL-28 > 100 µM | SK-OV-3 > 100 µM | SNB-19 > 100 µM | CAKI-1 > 100 µM | SF-539 > 100 µM | Malme-3M > 100 µM | UACC-62 > 100 µM | RXF 393 > 100 µM | K562 > 100 µM | KM12 > 100 µM | UO-31 > 100 µM

COC(=O)[C@@H]1C[C@H](c2ccc(OC)c(OC)c2)OC1=O.COC(=O)[C@H]1C[C@H](c2ccc(OC)c(OC)c2)OC1=O
inactive: SW-620 > 100 µM | NCI-H226 > 100 µM | CCRF-CEM > 100 µM | M14 > 100 µM | OVCAR-8 > 100 µM | NCI-H460 > 100 µM | RPMI-8226 > 100 µM | SK-MEL-28 > 100 µM | SK-OV-3 > 100 µM | SNB-19 > 100 µM | CAKI-1 > 100 µM | SF-539 > 100 µM | Malme-3M > 100 µM | UACC-62 > 100 µM | RXF 393 > 100 µM | K562 > 100 µM | KM12 > 100 µM | UO-31 > 100 µM

C/N=N/N(C)C(=O)NC
inactive: SW-620 > 100 µM | CCRF-CEM > 100 µM | M14 > 100 µM | OVCAR-8 > 100 µM | NCI-H460 > 100 µM | RPMI-8226 > 100 µM | SK-MEL-28 > 100 µM | SK-OV-3 > 100 µM | SNB-19 > 100 µM | CAKI-1 > 100 µM | SF-539 > 100 µM | Malme-3M > 100 µM | UACC-62 > 100 µM | RXF 393 > 100 µM | K562 > 100 µM | KM12 > 100 µM | UO-31 > 100 µM

C/C(N)=[N+](/C)[O-]
inactive: NCI-H226 > 100 µM | CCRF-CEM 23.4 µM | M14 > 100 µM | OVCAR-8 > 100 µM | NCI-H460 25.4 µM | RPMI-8226 > 100 µM | SK-MEL-28 82.4 µM | SK-OV-3 > 100 µM | SF-539 69.2 µM | Malme-3M > 100 µM | UACC-62 > 100 µM | RXF 393 > 100 µM | K562 39.5 µM | KM12 > 100 µM | UO-31 > 100 µM

COc1ccc(C(=O)N/N=C/c2c(C)n(C)n(-c3ccccc3)c2=O)cc1
inactive: SW-620 > 100 µM | NCI-H226 > 100 µM | CCRF-CEM > 100 µM | M14 > 100 µM | OVCAR-8 > 100 µM | NCI-H460 > 100 µM | RPMI-8226 > 100 µM | SK-MEL-28 > 100 µM | SK-OV-3 > 100 µM | SNB-19 > 100 µM | SF-539 > 100 µM | Malme-3M > 100 µM | UACC-62 > 100 µM | RXF 393 > 100 µM | K562 > 100 µM | KM12 > 100 µM | UO-31 > 100 µM

CN(Cc1ccccc1)C(=O)c1ccccc1C(=O)O
inactive: SW-620 > 100 µM | NCI-H226 > 100 µM | CCRF-CEM > 100 µM | M14 > 100 µM | OVCAR-8 > 100 µM | NCI-H460 > 100 µM | RPMI-8226 > 100 µM | SK-OV-3 > 100 µM | SNB-19 > 100 µM | CAKI-1 > 100 µM | SF-539 > 100 µM | Malme-3M > 100 µM | RXF 393 > 100 µM | K562 > 100 µM | KM12 > 100 µM | UO-31 > 100 µM

CCOC(=O)C(C)(c1cn(C)c2ccccc12)c1cn(C)c2ccccc12
inactive: SW-620 > 100 µM | NCI-H226 30.6 µM | CCRF-CEM > 100 µM | M14 > 100 µM | OVCAR-8 52.2 µM | NCI-H460 > 100 µM | RPMI-8226 > 100 µM | SK-MEL-28 > 100 µM | SK-OV-3 > 100 µM | CAKI-1 41.6 µM | SF-539 49.7 µM | Malme-3M 67.3 µM | UACC-62 87.9 µM | RXF 393 44.5 µM | K562 66.2 µM | KM12 > 100 µM | UO-31 > 100 µM

Reference: ChEMBL document CHEMBL1201862, “PubChem BioAssay data set” (2004)
